This note sets out measurements from article PMC6509344, “Novel CMKLR1 Inhibitors for Application in Demyelinating Disease” (Scientific Reports, 2019).

A word on the IC50: it is the concentration needed to halve the response being measured.

In one experiment the test system is C57BL/6 mice with EAE. Description: Experimental autoimmune encephalomyelitis (EAE), MOG35–55/CFA immunization. The following applies: for Day of onset (Mean ± SEM) / Maximum Score (Mean ± SEM) / AUC (Mean ± SEM) of clinical score: Table 4, 10 mg/kg daily to D21, n = 8; for Maximum Score (Mean ± SEM): clinical score 0-5; for AUC (Mean ± SEM) of clinical score: mean clinical score x day. The class given is in vivo, mouse. Here is the method:
C57BL/6 mice were purchased from The Jackson Laboratory. […] Animal experiments were conducted in accordance with approved Veterans Affairs, National Institutes of Health, and Institutional Animal Care and Use Committee guidelines.
CFA consisted of 5 mg/ml mTB (Mycobacterium-tuberculosis H37 Ra, BD Difco) in IFA (Incomplete Freund’s Adjuvant, Sigma). MOG35–55 was reconstituted at 2 mg/ml in PBS. Mice also received 200 ng pertussis toxin (List Biological Laboratories, Inc) by i.p. injection at the time of immunization and two days later. […] For a direct comparison to α-NETA, the DMF and compound doses were also 10 mg/kg in 10% captisol. Mice were monitored daily for clinical disease and scored (0 = normal/healthy, 1 = limp tail, 2 = hindlimb weakness, 3 = hindlimb paralysis, 4 = hindlimb and forelimb paralysis, 5 = moribund/dead).

The target of another experiment is T1, CMKLR1 (Homo sapiens, UniProt Q99788).
T1 construct: host or cells: CHO-K1 (PathHunter CMKLR1 β-Arrestin cells)
T1 sequence (Q99788 1-373): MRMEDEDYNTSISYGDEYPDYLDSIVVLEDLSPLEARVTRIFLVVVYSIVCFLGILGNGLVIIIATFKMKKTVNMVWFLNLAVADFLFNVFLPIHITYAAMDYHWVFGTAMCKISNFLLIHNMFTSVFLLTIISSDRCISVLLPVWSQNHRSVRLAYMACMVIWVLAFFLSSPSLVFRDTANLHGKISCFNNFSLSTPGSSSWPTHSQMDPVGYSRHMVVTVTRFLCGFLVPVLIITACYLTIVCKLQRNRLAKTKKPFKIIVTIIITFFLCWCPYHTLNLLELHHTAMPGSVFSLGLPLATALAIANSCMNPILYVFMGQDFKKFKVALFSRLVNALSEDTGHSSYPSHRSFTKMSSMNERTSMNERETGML
Description: β-arrestin recruitment assay (chemerin-dependent β-arrestin2 signaling). The class given is cell-based. The following applies: for IC50: CMKLR1-CHO-β-Arrestin cells, 20 nM chemerin, read-out: β-arrestin IC50 mean ± SEM (n). The protocol:
DiscoverX PathHunter® CHO-K1 CMKLR1 β-Arrestin Cells were grown in RPMI lacking phenol red (Gibco, Life Technologies), supplemented with L-glutamine, penicillin-streptomycin, sodium pyruvate, non-essential amino acid, BCS, hygromycin, and G418-sulfate. CMKLR1-CHO-β-Arrestin cells were seeded in 96 well plates at 1 × 10^5 cell/ml- 100 ul/well and incubated overnight at 37 °C, 5% CO2. […] (α-NETA and test compounds were reconstituted in DMSO; final DMSO concentration in each well was 0.1%). After 10 min, 5 ul of recombinant human chemerin (R&D Systems) at a final concentration of 20 nM was added to each well. Plates were incubated for 90 min at 37 °C, 5% CO2. Media was then removed and 50 ul of chemiluminescent substrate (Tropix Gal-Screen, Applied Biosciences) was added. The plate was incubated for 1 hr at RT and luminescence was detected using the SpectraMax M5 plate reader (Molecular Devices). For each independent trial (single replicate dose curves), data was normalized to the maximum signal per compound tested and an IC50 value was generated using GraphPad Prism software. The average IC50 value for n independent trials (as specified in the table) is reported.

In another experiment the test system is (hu)CMKLR1 L1.2 cells. Description: Chemotaxis assay toward huChemerin. Format: cell-based, human. The following applies: for IC50: (hu)CMKLR1 L1.2 cells migrating toward huChemerin, 2 h, read-out: Chemotaxis IC50 mean ± SEM (n). Here is the method: (hu)CMKLR1 transfectants (generated in L1.2 pre-B cell lymphoma cells) were grown in RPMI 1640 (Corning) supplemented with L-glutamine, penicillin-streptomycin, and 10% BCS and G418-sulfate (KSE Scientific). DiscoverX PathHunter® CHO-K1 CMKLR1 β-Arrestin Cells were grown in RPMI lacking phenol red (Gibco, Life Technologies), supplemented with L-glutamine, penicillin-streptomycin, sodium pyruvate, non-essential amino acid, BCS, hygromycin, and G418-sulfate.
(hu)CMKLR1 L1.2 cells at 1 × 10^6 cell/ml were treated with 5 mM sodium butyrate (Sigma) overnight to induce hCMKLR1 expression. The next day, cells were washed in migration media (RPMI + 0.5%BSA) and resuspended at 1.5–3 × 10^6 cell/ml. Cells were pre-incubated at RT for 10 min with various concentrations of α-NETA or test compounds (α-NETA and test compounds were reconstituted in DMSO; final DMSO concentration in each well was 0.1%). 100 ul of cells were added to the upper chamber of a 24-well transwell plate (5 um pore size, Costar). Cells were allowed to migrate toward huChemerin ([…] in migration media, bottom chamber) for 2 h, 37 °C, 5% CO2. The number of migrated cells was quantified by flow cytometry (BD LSR2), and live cells were distinguished based on FSC × SSC properties. The background for this assay was typically low with 0 cells migrating to the buffer alone. For each independent trial, data was normalized to the maximum migration per compound tested and an IC50 value was generated using GraphPad Prism software. The average IC50 value for n independent trials (as specified in the table) is reported.

Where [1] appears, read: Table 3 quaternary ammonium salts.

Where a name gives a salt, the structure may show the parent alone. Read-outs that look alike come from different tables or passages of the source.

Consider `COc1ccc2ccccc2c1C(=O)CCN(C)C` [Compound 6], for which, in the experiment on C57BL/6 mice with EAE, the “Day of onset (Mean ± SEM)” value stood at 14.5 ± 0.4, the “Maximum Score (Mean ± SEM)” value came out at 2.4 ± 0.2 and the “AUC (Mean ± SEM) of clinical score” value worked out at 25.2 ± 4.0. Moreover, the IC50 on CMKLR1 (Table 2 tertiary amines) was found to be 6.2 ± 2.5 µM.
With `CN(C)CCC(=O)c1ccc2ccccc2c1` [Compound 7], on CMKLR1 (Table 2 tertiary amines), the IC50 turned out to be 18.5 µM.
Same read-out and setting: next, `CCN(CC)CCC(=O)c1ccc2ccccc2c1` [Compound 8]: 71.3 µM; `CCN(C)CCC(=O)c1ccc2ccccc2c1` [Compound 9]: 39.6 µM; `CCCCN(C)CCC(=O)c1ccc2ccccc2c1` [Compound 10]: 44.5 µM.
The same measure, in the same setting: next, `COc1ccc2cc(C(=O)CCN(C)C)ccc2c1` [Compound 11]: above 100 µM.
On the same count and under the same terms, next, `COc1ccccc1C(=O)CCN(C)C` [Compound 16]: above 100 µM.
Turning to `COc1ccc(C(=O)CCN(C)C)cc1` [Compound 17], the IC50 at CMKLR1 (Table 2 tertiary amines) is above 100 µM.
Consider `COc1cccc(C(=O)CCN(C)C)c1` [Compound 18], for which, at CMKLR1 (Table 2 tertiary amines), the 50% inhibitory concentration (IC50) was 64 µM.
Turning to `COc1cccc(OC)c1C(=O)CCN(C)C` [Compound 19], the IC50 on CMKLR1 (Table 2 tertiary amines) was determined as 10.3 ± 4.5 µM.
Consider `CN(C)CCC(=O)C1CCCCC1` [Compound 20], for which the “activity in β-arrestin2 assay (in words)” value at CMKLR1 is “complete loss of activity”. Also, the IC50 at CMKLR1 (Table 2 tertiary amines) was above 100 µM.
In the case of `C[N+](C)(C)CCC(=O)c1ccc2ccccc2c1` [Compound 23], the IC50 with (hu)CMKLR1 L1.2 cells is 24.1 µM; on CMKLR1 (setting [1]), 2.5 ± 0.9 µM.
Take `C[N+](C)(C)CCC(=O)c1ccccc1.[I-]` [Compound 24]: in the experiment with (hu)CMKLR1 L1.2 cells, the “activity in chemotaxis assay (in words)” value is reported as “did not show any activity” and the IC50 is above 100 µM. Moreover, on CMKLR1 (setting [1]), the half-inhibitory concentration (IC50) turned out to be 5.6 ± 0.7 µM.
`C[N+](C)(C)CCC(=O)C1CCCCC1` [Compound 25]: the concentration for half-maximal inhibition (IC50) was above 100 µM in the experiment with (hu)CMKLR1 L1.2 cells and 11.9 µM on CMKLR1 (setting [1]).
In the case of `COc1ccccc1C(=O)CC[N+](C)(C)C.[I-]` [Compound 26], in the experiment on (hu)CMKLR1 L1.2 cells, the “activity in chemotaxis assay (in words)” value is reported as “highly active” and the IC50 is 7.2 µM. On CMKLR1, the “activity in β-arrestin2 assay (in words)” value is “highly active”. Moreover, on CMKLR1 (setting [1]), the IC50 is 2.9 ± 1.6 µM.
Turning to `COc1ccc(C(=O)CC[N+](C)(C)C)cc1.[I-]` [Compound 27], in the experiment on C57BL/6 mice with EAE, the “Day of onset (Mean ± SEM)” value was determined as 16.0 ± 0.9, the “Maximum Score (Mean ± SEM)” value is reported as 2.1 ± 0.1^¶ and the “AUC (Mean ± SEM) of clinical score” value is 24.3 ± 4.2. For the same compound, in the experiment on (hu)CMKLR1 L1.2 cells, the “activity in chemotaxis assay (in words)” value is “highly active” and the half-inhibitory concentration (IC50) was determined as 4.5 ± 1.5 µM. Further, the “activity in β-arrestin2 assay (in words)” value at CMKLR1 was “highly active”. The IC50 on CMKLR1 (setting [1]) is 1.9 ± 0.2 µM.
Turning to `COc1cccc(C(=O)CC[N+](C)(C)C)c1` [Compound 28], the IC50 in the experiment with (hu)CMKLR1 L1.2 cells came out at 14.6 ± 4.8 µM; on CMKLR1 (setting [1]), 3.8 ± 1.7 µM.
On the same counts, the results for `COc1ccc(C(=O)CC[N+](C)(C)C)c(OC)c1` [Compound 29] are 17.4 ± 2.2 µM and 4.8 ± 1.6 µM.
`COc1cccc(OC)c1C(=O)CC[N+](C)(C)C.[I-]` [Compound 30]: in the experiment with (hu)CMKLR1 L1.2 cells, the “activity in chemotaxis assay (in words)” value is “highly active”. Besides, the IC50 in the experiment with (hu)CMKLR1 L1.2 cells amounted to 6.8 µM; on CMKLR1 (setting [1]), 2.1 ± 1.1 µM. The “activity in β-arrestin2 assay (in words)” value at CMKLR1 was “highly active”.
Turning to `COc1cc(OC)cc(C(=O)CC[N+](C)(C)C)c1` [Compound 31], the IC50 is above 100 µM in the experiment with (hu)CMKLR1 L1.2 cells and 6 ± 2.2 µM at CMKLR1 (setting [1]).
Regarding `COc1ccc2cc(C(=O)CC[N+](C)(C)C)ccc2c1` [Compound 32], the results for the IC50 with (hu)CMKLR1 L1.2 cells and on CMKLR1 (setting [1]) were 20 ± 6.2 µM and 1.5 ± 0.3 µM, respectively.
On the same counts, the results for `COc1ccc2ccccc2c1C(=O)CC[N+](C)(C)C` [Compound 33] are 10.7 µM and 0.6 ± 0.3 µM.
Consider `C[N+](C)(C)CCS(=O)(=O)c1ccccc1` [Compound 35], for which the “activity in β-arrestin2 assay (in words)” value at CMKLR1 was “inactive”.
`COC(=O)/C=C/C(=O)OC` [Tecfidera, dimethyl fumarate, reference compound]: the “day of EAE onset (mean ± SEM)” value in the experiment on C57BL/6 mice with EAE (Fig. 1 study, 10 mg/kg daily in 10% captisol, s.c., d29 onset assumed for 2 α-NETA mice) turned out to be 14 ± 2 days.
